# ChEMBL document CHEMBL5370588, “Unraveling the unexpected aggregation behavior of Pyrazole-Based compounds Targeting Mycobacterium tuberculosis UDP-Galactopyranose mutase” (Bioorg Med Chem, 2023)
# Active and inactive are the calls of the source. The rule behind the calls is not given here.
# Columns and labels:
# [1] = biological target: T1, UDP-galactopyranose mutase (Mycobacterium tuberculosis, UniProt P9WIQ1); test: Inhibition of His6-tagged Mycobacterium tuberculosis reduced UDP-galactopyranose mutase expressed in Escherichia coli BL21 assessed as reduction in UDPGalf production using UDPGalp as substrate by HPLC analysis
# T1 sequence (P9WIQ1 whole entry): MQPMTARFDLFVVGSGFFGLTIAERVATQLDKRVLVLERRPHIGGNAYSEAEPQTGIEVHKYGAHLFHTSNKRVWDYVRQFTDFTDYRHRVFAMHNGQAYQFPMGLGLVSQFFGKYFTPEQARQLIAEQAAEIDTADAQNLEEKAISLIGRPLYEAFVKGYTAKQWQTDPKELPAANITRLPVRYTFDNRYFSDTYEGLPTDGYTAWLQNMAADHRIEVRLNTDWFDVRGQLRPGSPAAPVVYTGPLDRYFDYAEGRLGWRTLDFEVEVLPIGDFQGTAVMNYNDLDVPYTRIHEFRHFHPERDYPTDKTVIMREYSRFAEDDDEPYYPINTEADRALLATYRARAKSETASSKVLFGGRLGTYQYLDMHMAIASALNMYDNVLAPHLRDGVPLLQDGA
# [2] = biological target: T1, UDP-galactopyranose mutase; test: Inhibition of His6-tagged Mycobacterium tuberculosis reduced UDP-galactopyranose mutase expressed in Escherichia coli BL21 assessed as reduction in UDPGalf production using UDPGalp as substrate in presence of TritonX100 by HPLC analysis
# [3] = biological target: T1, UDP-galactopyranose mutase; test: Inhibition of His6-tagged Mycobacterium tuberculosis UDP-galactopyranose mutase expressed in Escherichia coli BL21 using […] as substrate by Dixon plot analysis
# [4] = Aggregation property of compound in PBS at pH 7 assessed as critical aggregation concentration by DLS assay; assay type: physicochemical; conditions: buffer
# [5] = biological target: UDP-galactopyranose mutase (Mycobacterium tuberculosis) (UniProt P9WIQ1); test: Binding affinity to His6-tagged Mycobacterium tuberculosis reduced UDP-galactopyranose mutase expressed in Escherichia coli BL21 assessed as increase in corrected fluorescence intensity using UDP-Galp as substrate at 100 to 1000 uM in presence of ANS by fluorescence-based binding assay; conditions: dose 100-1000 µM
# Chain of UDP-galactopyranose mutase (Mycobacterium tuberculosis) (P9WIQ1 whole entry, looked up): as the sequence (P9WIQ1 whole entry) above
# [6] = biological target: UDP-galactopyranose mutase (Mycobacterium tuberculosis) (UniProt P9WIQ1); test: Binding affinity to His6-tagged Mycobacterium tuberculosis UDP-galactopyranose mutase expressed in Escherichia coli BL21 assessed as increase in melting temperature using UDP-Galp as substrate at < 100 uM in presence of Sypro Orange by thermal shift assay
# [7] = biological target: UDP-galactopyranose mutase (Mycobacterium tuberculosis) (UniProt P9WIQ1); test: Binding affinity to His6-tagged Mycobacterium tuberculosis UDP-galactopyranose mutase expressed in Escherichia coli BL21 assessed as decrease in melting temperature using UDP-Galp as substrate at 100 to 400 uM in presence of Sypro Orange by thermal shift assay; conditions: dose 100-400 µM
# [8] = Aggregation property of compound in PBS at pH 7 at 80 uM by DLS assay; assay type: physicochemical; conditions: buffer, pH 7, 80 µM
# [9] = biological target: UDP-galactopyranose mutase (Mycobacterium tuberculosis) (UniProt P9WIQ1); test: Binding affinity to His6-tagged Mycobacterium tuberculosis UDP-galactopyranose mutase expressed in Escherichia coli BL21 assessed as decrease in melting temperature at 800 to 1000 uM in presence of Sypro Orange by thermal shift assay; conditions: dose 800-1000 µM
# [10] = biological target: UDP-galactopyranose mutase (Mycobacterium tuberculosis) (UniProt P9WIQ1); test: Binding affinity to His6-tagged Mycobacterium tuberculosis UDP-galactopyranose mutase expressed in Escherichia coli BL21 assessed as change melting temperature at 20 uM in presence of Sypro Orange by thermal shift assay
# [11] = biological target: UDP-galactopyranose mutase (Mycobacterium tuberculosis) (UniProt P9WIQ1); test: Binding affinity to His6-tagged Mycobacterium tuberculosis reduced UDP-galactopyranose mutase expressed in Escherichia coli BL21 assessed as increase in corrected fluorescence intensity at 100 to 1000 uM in presence of ANS by fluorescence-based binding assay; conditions: dose 100-1000 µM
# [12] = biological target: T1, UDP-galactopyranose mutase; test: Inhibition of Mycobacterium tuberculosis UDP-galactopyranose mutase expressed in Escherichia coli BL21 using […] as substrate by Dixon plot analysis
# [13] = biological target: UDP-galactopyranose mutase (Mycobacterium tuberculosis) (UniProt P9WIQ1); test: Binding affinity to His6-tagged Mycobacterium tuberculosis UDP-galactopyranose mutase expressed in Escherichia coli BL21 assessed as increase in melting temperature using UDP-Galp as substrate at 600 to 800 uM in presence of Sypro Orange by thermal shift assay; conditions: dose 600-800 µM
# [14] = biological target: T1, UDP-galactopyranose mutase; test: Inhibition of Mycobacterium tuberculosis UDP-galactopyranose mutase expressed in Escherichia coli BL21 using […] as substrate by cornish-bowden plot analysis
# [15] = biological target: UDP-galactopyranose mutase (Mycobacterium tuberculosis) (UniProt P9WIQ1); test: Binding affinity to His6-tagged Mycobacterium tuberculosis UDP-galactopyranose mutase expressed in Escherichia coli BL21 assessed as change melting temperature up to 600 uM in presence of Sypro Orange by thermal shift assay
smiles,measurement,setting,value
O=C(CCc1cn(-c2ccc(Cl)cc2)nn1)Oc1ccc(Cl)cc1,IC50,[1],530 µM
same,IC50,[2],1260 µM
OC(c1ccc(Cl)cc1)c1cn(-c2ccc(Cl)cc2)nn1 (stereo not given),IC50,[1],150 µM
same,IC50,[2],2710 µM
Cc1nn(-c2ccc(Cl)cc2)c(O)c1C(=O)c1ccccc1,IC50,[1],610 µM
same,IC50,[2],1510 µM
Cc1cc(OC(=O)c2ccc(S(N)(=O)=O)cc2)n(-c2ccc(Cl)cc2)n1,IC50,[1],500 µM
same,IC50,[2],1130 µM
same,Ki,[3],~51 µM
Cc1nn(-c2ccc(Cl)cc2)c(O)c1S(=O)(=O)c1ccc(Cl)cc1,IC50,[1],225 µM
same,IC50,[2],4340 µM
Cc1[nH]n(-c2ccc(Cl)cc2)c(=O)c1C(=O)c1ccc(Cl)cc1,CAC,[4],> 50 µM
same,Activity,[5],Active
same,Activity,[6],Active
same,Activity,[7],Active
same,IC50,[1],880 µM
same,Activity,[8],Active
same,Activity,[9],Active
same,ΔTm,[10],5 °C
same,IC50,[2],590 µM
same,Activity,[11],Active
same,Ki,[12],~135 µM
same,Activity,[13],Active
same,Ki,[14],~400 µM
same,Activity,[15],inactive
